Source: article PMC11755709, “Cytotoxicity and Oxidative Stress Induced by Technology-Critical Elements versus Traditional Metal Contaminants: An In Vitro Bioassay Study” (Environmental Science & Technology, 2025)
“Also recorded” adds a separate entry of the source. Read-outs that look alike come from different tables or passages of the source.

Columns and labels:
[1] = test system: AR-EcoScreen GR-KO-M1 cell line; settings: for cytotoxicity (cell viability <80% vs vehicle control) / IC70, cytotoxicity: AR-EcoScreen GR-KO-M1, MTS test; for cytotoxicity (cell viability <80% vs vehicle control): up to 10 or 100 mg/L; for IC50: read-out: interpolated IC50, cytotoxicity, AR-EcoScreen, converted to mmol/L
MCF7AREc32 cell line = settings: for IC70, cytotoxicity / cytotoxicity (cell viability <80% vs vehicle control): MCF7AREc32, MTS test; for IC70, cytotoxicity: 24 h exposure, 70% response relative to vehicle control; for cytotoxicity (cell viability <80% vs vehicle control): up to 10 or 100 mg/L
DR-EcoScreen cell line = settings: for IC70, cytotoxicity / cytotoxicity (cell viability <80% vs vehicle control): MTS test; for cytotoxicity (cell viability <80% vs vehicle control): up to 10 or 100 mg/L
[2] = test system: nuclear factor erythroid 2-related factor 2 (Nrf2) pathway; assay type: cell-based, human; settings: for ECIR1.5 (effective concentration at an induction ratio of 1.5), Nrf2 activity: MCF7AREc32, 24 h exposure, linear regression; for induction of oxidative stress (Nrf2 activity exceeding a 1.5 induction ratio): MCF7AREc32, noncytotoxic concentrations
human bone osteoblasts [3] = test system: human bone osteoblasts; design: method as in Al-Ghafari et al. [55]; settings: ref Al-Ghafari et al. [55], read-out: IC50 (LDH assay); cited from earlier work
human bone osteoblasts [4] = test system: human bone osteoblasts; design: method as in Al-Ghafari et al. [55]; settings: ref Al-Ghafari et al. [55], read-out: IC50 (MTT assay); cited from earlier work
VM7Luc4E2 cell line = settings: VM7Luc4E2, ATPase test; for cytotoxicity (cell viability <80% vs vehicle control): up to 10 or 100 mg/L; for IC80: read-out: IC80, cytotoxicity
[5] = test system: rat NR8383 alveolar macrophages; design: method as in Huang et al. [69]; settings: highest tested 200 mg/L, ref Huang et al. [69]; cited from earlier work

SMILES	cytotoxicity (cell viability <80% vs vehicle control) [1]	cytotoxicity (cell viability <80% vs vehicle control) (MCF7AREc32 cell line)	IC70, cytotoxicity (DR-EcoScreen cell line; 24 h exposure)	cytotoxicity (cell viability <80% vs vehicle control) (DR-EcoScreen cell line)	ECIR1.5 (effective concentration at an induction ratio of 1.5), Nrf2 activity [2]	IC70, cytotoxicity ([1]; 24 h exposure)	cytotoxicity (cell viability <80% vs vehicle control) (VM7Luc4E2 cell line)	other results
[As] [As, arsenic, reference compound]	Cytotoxicity is shown; also recorded: cytotoxicity was identified	Cytotoxicity is shown; also recorded: cytotoxicity was identified	0.83 µg/mL	Cytotoxicity is shown; also recorded: cytotoxicity was identified	0.11 mg/L			IC50 [1]: 0.17 mmol/L; IC70, cytotoxicity (MCF7AREc32 cell line): 8.1 µg/mL; IC50 (DR-EcoScreen cell line; read-out: interpolated IC50, cytotoxicity, converted to mmol/L): 0.014 mmol/L; induction of oxidative stress (Nrf2 activity exceeding a 1.5 induction ratio) [2]: found to induce oxidative stress
[Cd] [Cd, cadmium]	Cytotoxicity is shown; also recorded: cytotoxicity was identified	Cytotoxicity is shown; also recorded: cytotoxicity was identified		Cytotoxicity is shown; also recorded: cytotoxicity was identified	0.24 mg/L	2.6 mg/L		IC50 [1]: 0.052 mmol/L; IC70, cytotoxicity (MCF7AREc32 cell line): 9.1 µg/mL; IC50 (MCF7AREc32 cell line; read-out: interpolated IC50, cytotoxicity, MCF7AREc32, converted to mmol/L): 0.087 mmol/L; IC50 (human bone osteoblasts [3]): 63 µM; IC50 (human bone osteoblasts [4]): 32 µM; induction of oxidative stress (Nrf2 activity exceeding a 1.5 induction ratio) [2]: found to induce oxidative stress
[Ga] [Ga, gallium]	Cytotoxicity is shown; also recorded: Cytotoxic effects were most clearly observed		100 µg/mL	Cytotoxicity is shown; also recorded: Cytotoxic effects were most clearly observed	0.83 mg/L	50 mg/L	Cytotoxicity is shown; also recorded: Cytotoxic effects were most clearly observed	IC70, cytotoxicity ([1]; converted from mg/L): 0.72 mmol/L; IC70, cytotoxicity (DR-EcoScreen cell line; converted from mg/L): 1400 µM; induction of oxidative stress (Nrf2 activity exceeding a 1.5 induction ratio) [2]: found to induce oxidative stress; IC70, cytotoxicity (VM7Luc4E2 cell line; 24 h exposure): 52 µg/mL; IC70, cytotoxicity (VM7Luc4E2 cell line; converted from mg/L): 750 µM
[Gd] [Gd, Gadolinium]							Cytotoxicity is shown; also recorded: induce cytotoxic effects	IC80, cytotoxicity (VM7Luc4E2 cell line; 24 h exposure): 3.7 µg/mL; IC80 (VM7Luc4E2 cell line; converted from mg/L): 24 µM
[Ge] [Ge, germanium]	Neither Ge nor In exhibited any cytotoxicity	Neither Ge nor In exhibited any cytotoxicity		Neither Ge nor In exhibited any cytotoxicity			Neither Ge nor In exhibited any cytotoxicity	
[Nd+3].[Nd+3].[O-2].[O-2].[O-2] [Nd2O3]								concentration up to which no noticeable cytotoxicity was observed [5]: 6250 ng/mL
[Nd] [Nd, Neodymium]	Cytotoxicity is shown; also recorded: Cytotoxic effects were most clearly observed		31 µg/mL	Cytotoxicity is shown; also recorded: Cytotoxic effects were most clearly observed		26 mg/L	Cytotoxicity is shown; also recorded: Cytotoxic effects were most clearly observed	IC70, cytotoxicity ([1]; converted from mg/L): 0.18 mmol/L; IC70, cytotoxicity (DR-EcoScreen cell line; converted from mg/L): 210 µM; IC70, cytotoxicity (VM7Luc4E2 cell line; 24 h exposure): 24 µg/mL; IC70, cytotoxicity (VM7Luc4E2 cell line; converted from mg/L): 170 µM
[Pb] [Pb, lead]								IC50 (human bone osteoblasts [3]): 79 µM; IC50 (human bone osteoblasts [4]): 55 µM
[Te] [Te, tellurium]	Cytotoxicity is shown; also recorded: Cytotoxic effects were most clearly observed		8.7 µg/mL	Cytotoxicity is shown; also recorded: Cytotoxic effects were most clearly observed		0.28 mg/L	Cytotoxicity is shown; also recorded: Cytotoxic effects were most clearly observed	IC70, cytotoxicity ([1]; converted from mg/L): 2.2 × 10^–3 mmol/L; IC70, cytotoxicity (DR-EcoScreen cell line; converted from mg/L): 68 µM; IC70, cytotoxicity (VM7Luc4E2 cell line; 24 h exposure): 1.5 µg/mL; IC70, cytotoxicity (VM7Luc4E2 cell line; converted from mg/L): 12 µM
[Tl] [Tl, thallium]		Cytotoxicity is shown; also recorded: Cytotoxicity for Tl was observed					Cytotoxicity is shown; also recorded: more evident	IC80, cytotoxicity (VM7Luc4E2 cell line; 24 h exposure): 9.0 µg/mL; IC80 (VM7Luc4E2 cell line; converted from mg/L): 44 µM
[Yb] [Yb, Ytterbium]							Cytotoxicity is shown; also recorded: induce cytotoxic effects	IC80, cytotoxicity (VM7Luc4E2 cell line; 24 h exposure): 33 µg/mL; IC80 (VM7Luc4E2 cell line; converted from mg/L): 190 µM
CC(C)(C)c1cc(O)ccc1O [tBHQ, tert-butylhydroquinone]					0.27 mg/L			
